Earlier results on three molecules are cited in US20050182128A1, “Use of anethole dithiolethione in lung cancer chemoprevention” (priority 2002, published 2005).

The test system of series [1] is glutathione-S-transferase (GST). Conditions: rat model of hepatoma; p<0.01; cited from earlier work.
For series [2] the following is noted: in vivo; cited from earlier work.
In another series the test system is aflatoxins. Conditions: in vivo; cited from earlier work.
Another series relates to metaplasia. Conditions: metaplasia as intermediate endpoint biomarker; cited from earlier work.

As for `Cc1c(-c2cnccn2)ssc1=S` [Oltipraz, 5-(2-pyrazinyl)-4-methyl-1,2-dithiol-3-thione], the “Mean GST levels in the liver” value in series [1] is “statistically increased”. For the same molecule, the Toxicity in chemoprevention entry in series [2] is reported as “too toxic for chemoprevention”. For the same molecule, in the series with aflatoxins, the “Phase I activation of aflatoxins” value is listed as “inhibited phase I activation of aflatoxins” and the “Phase II conjugation of aflatoxin” value is on record as “increased phase II conjugation of aflatoxin”.

In the case of `CC1=C(/C=C/C(C)=C/C=C/C(C)=C/C(=O)Nc2ccc(O)cc2)C(C)(C)CCC1` [N-(4-Hydroxyphenyl)retinamide], in the series with metaplasia, the Chemopreventive efficacy entry was “not found to be effective”.

For `CC1=C(/C=C/C(C)=C/C=C/C(C)=C\C(=O)O)C(C)(C)CCC1` [isotretinoin], the Chemopreventive efficacy entry in the series on metaplasia is given as “not found to be effective”.
